Source: the Deep4Chem optical property database
One block for each molecule: values may come before it.

Assay: solvent given as SMILES

SMILES: O=C(N/N=C/c1ccccc1O)c1cccc2ccccc12
emission maximum (in C1CCOC1): 436 nm
emission maximum (in CC#N): 376 nm
emission maximum (in CC(C)=O): 428 nm
emission maximum (in CCO): 429 nm
emission maximum (in CN(C)C=O): 560 nm
emission maximum (in CS(C)=O): 336 nm
emission maximum (in ClCCl): 393 nm

SMILES: CSc1sc(C(=O)c2ccccc2)c2nn[nH]c(=O)c12
emission maximum (in C1CCOC1): 482 nm
emission maximum (in CC#N): 485 nm
emission maximum (in CCO): 489 nm
emission maximum (in CN(C)C=O): 492 nm
emission maximum (in CO): 495 nm
emission maximum (in CS(C)=O): 497 nm

SMILES: COc1ccc(N(c2ccc(C=C(c3ccccc3)c3ccccc3)cc2)c2ccc(OC)cc2)cc1
emission maximum (in Cc1ccccc1): 489 nm

SMILES: CCCCC1(c2ccc(OC)cc2)Nc2ccccc2N=C1c1ccc(OC)cc1 (configuration not stated)
emission maximum (in C1CCOC1): 513 nm
emission maximum (in CC#N): 522 nm
emission maximum (in CCCCCC): 485 nm
emission maximum (in CN(C)C=O): 525 nm
emission maximum (in Cc1ccccc1): 501 nm
emission maximum (in ClC(Cl)Cl): 507 nm

SMILES: O=c1oc2ccccc2cc1-c1cc2ccccc2o1
emission maximum (in CC#N): 442 nm
emission maximum (in CCOC(C)=O): 433 nm
emission maximum (in CS(C)=O): 450 nm
emission maximum (in Cc1ccccc1): 431 nm
emission maximum (in O): 475 nm

SMILES: C[n+]1ccc(/C=C/c2ccc([O-])cc2)cc1
emission maximum (in CC#N): 606 nm
emission maximum (in CC(C)=O): 610 nm
emission maximum (in CC(C)O): 594 nm
emission maximum (in CCCO): 587 nm
emission maximum (in CCO): 582 nm
emission maximum (in CN(C)C=O): 608 nm
emission maximum (in CO): 576 nm
emission maximum (in CS(C)=O): 608 nm
emission maximum (in ClCCl): 615 nm
emission maximum (in NC=O): 577 nm
emission maximum (in O): 560 nm
emission maximum (in OCCO): 573 nm

SMILES: C1=Cc2ccc(N(c3ccccc3)c3ccccc3)cc2C2(c3cc(N(c4ccccc4)c4ccccc4)ccc31)c1ccccc1-c1ccccc12
emission maximum (in ClCCl): 461 nm

SMILES: CCC(CC)COC1=CC2=C3c4cc(OCC(CC)CC)c(-c5ccccc5)n4[B-](F)(F)[n+]4nnn(c43)[B-](F)(F)[N+]2=C1c1ccccc1
emission maximum (in C1CCOC1): 725 nm
emission maximum (in CC#N): 721 nm
emission maximum (in ClCCl): 730 nm

SMILES: CN(C)c1ccc(/C=C/c2cc(/C=C/c3ccc(N(C)C)cc3)nc(/C=C/c3ccccc3)n2)cc1
emission maximum (in C1CCOC1): 526 nm
emission maximum (in CC#N): 587 nm
emission maximum (in CC(C)=O): 563 nm
emission maximum (in CCCCCCC): 453 nm
emission maximum (in CS(C)=O): 601 nm
emission maximum (in Cc1ccccc1): 483 nm
emission maximum (in ClCCl): 537 nm

SMILES: Cc1ccc(C)cc1
emission maximum (in C1CCCCC1): 292.06 nm

SMILES: O=C(c1ccccc1)c1ccc(-n2c3ccccc3c3c2c2ccccc2n3-c2ccccc2)cc1
emission maximum (in Cc1ccccc1): 520 nm

SMILES: CN1c2cc3nc4cc(Cl)c(Cl)cc4nc3cc2N(C)C1(C)C
emission maximum (in CCO): 497 nm

SMILES: CCCCCCOc1ccc2oc3c(c2c1)=CC1=C(c2ccccc2C)c2cc4c5cc(OCCCCCC)ccc5oc4n2[B-](F)(F)[N+]=31
emission maximum (in C1CCCCC1): 603 nm
emission maximum (in CCOC(C)=O): 602.5 nm
emission maximum (in CO): 603 nm

SMILES: CCn1c2sccc2c2c3nsnc3c3c4ccsc4n(CC)c3c21
emission maximum (in C1CCOC1): 521 nm
emission maximum (in CCOC(C)=O): 521 nm
emission maximum (in CN(C)C=O): 552 nm
emission maximum (in Cc1ccccc1): 508 nm
emission maximum (in ClCCl): 548 nm

SMILES: Cc1ccc2c(c1)C1(c3ccccc3-c3ccccc31)c1cc(C)ccc1N2c1ccc(-c2ncccn2)cc1
emission maximum (in Cc1ccccc1): 461 nm
emission maximum (in O=P(c1ccccc1)(c1ccccc1)c1ccc2oc3ccc(P(=O)(c4ccccc4)c4ccccc4)cc3c2c1): 466 nm

SMILES: CCCCCCCCN1C(=O)c2ccc3c4c(-c5ccc6c(c5)c5ccccc5n6-c5ccccc5)cc5c6c(ccc(c7c(-c8ccc9c(c8)c8ccccc8n9-c8ccccc8)cc(c2c37)C1=O)c64)C(=O)N(CCCCCCCC)C5=O
emission maximum (in ClC(Cl)Cl): 689 nm

SMILES: F[B-]1(F)n2c(Cl)c(Cl)c(Br)c2C(Oc2ccccc2)=C2C(Br)=C(Cl)C(Cl)=[N+]21
emission maximum (in ClCCl): 541 nm

SMILES: CC(C)C[Si](C#Cc1c2c(=O)c3ccccc3c2c(C#C[Si](CC(C)C)(CC(C)C)CC(C)C)c2c(=O)c3ccccc3c12)(CC(C)C)CC(C)C
emission maximum (in ClC(Cl)Cl): 567 nm

SMILES: COCCOCCOCCOCC(COCCOCCOCCOC)Oc1cc(/C=C/c2ccc(/C=C(\C#N)c3ccncc3)cc2)c(OC(COCCOCCOCCOC)COCCOCCOCCOC)cc1/C=C/c1ccc(/C=C(\C#N)c2ccncc2)cc1
emission maximum (in ClCCl): 574 nm

SMILES: CCC1=C(C)C(=O)n2c1cc1c(C)c(CC(=O)OC)c(C)n1c2=O
emission maximum (in CO): 525 nm
emission maximum (in CS(C)=O): 500 nm
emission maximum (in ClC(Cl)Cl): 490 nm
emission maximum (in c1ccccc1): 465 nm

SMILES: Cc1ccc(N2C(c3ccccc3[N-]S(=O)(=O)c3ccc(C)cc3)=[NH+]C(c3ccccc3)C2c2ccccc2)cc1 (configuration not stated)
emission maximum (in Cc1ccccc1): 499 nm

SMILES: COc1ccc(/C=C/C2=CC(/C=C/c3ccc(OC)cc3)=[O+][B-](F)(F)O2)cc1
emission maximum (in CC#N): 549 nm
emission maximum (in CC(C)=O): 534 nm
emission maximum (in CCOC(C)=O): 515 nm
emission maximum (in CCOCC): 497 nm
emission maximum (in ClC(Cl)(Cl)Cl): 492 nm
emission maximum (in ClCCl): 538 nm

SMILES: CC1(C)CC(=O)c2cc(F)c(F)cc2N1
emission maximum (in CC#N): 435 nm
emission maximum (in CCO): 472 nm

SMILES: COc1cc(OC)cc(C(=O)OCc2c(C)c(=O)n3c(=O)c(C)c(C)n23)c1
emission maximum (in CCO): 462 nm

SMILES: c1ccc(-c2nc(-c3ccccc3)nc(-n3c4ccccc4c4cc(-n5c6ccccc6c6ccccc65)cc(-n5c6ccccc6c6ccccc65)c43)n2)cc1
emission maximum (in C1CCOC1): 482.53 nm
emission maximum (in Cc1ccccc1): 465.06 nm

SMILES: c1ccc(-c2nn(-c3ccccc3)c3nc4ccccc4cc23)cc1
emission maximum (in C1CCCCC1): 443.66 nm
emission maximum (in C1CCOC1): 467.73 nm
emission maximum (in CC#N): 478.01 nm
emission maximum (in CC(C)=O): 472.59 nm
emission maximum (in CCCCCl): 462.96 nm
emission maximum (in CCCCOCCCC): 454.96 nm
emission maximum (in CN(C)C=O): 476.64 nm

SMILES: c1ccc2c(c1)OP1(=NP(Oc3ccc4ccc5cccc6ccc3c4c56)(Oc3ccc4ccc5cccc6ccc3c4c56)=NP(Oc3ccc4ccc5cccc6ccc3c4c56)(Oc3ccc4ccc5cccc6ccc3c4c56)=N1)Oc1ccccc1-2
emission maximum (in ClCCl): 457 nm

SMILES: Cc1ccc(C)n1-c1cccc(C#N)c1
emission maximum (in C1CCOC1): 481 nm
emission maximum (in CCCCCC): 403 nm
emission maximum (in CCCCCl): 477 nm
emission maximum (in CCOCC): 444 nm
emission maximum (in ClCCl): 504 nm

SMILES: c1ccccc1
emission maximum (in C1CCCCC1): 287.36 nm

SMILES: O=c1[nH]c(=O)n([C@@H]2O[C@H](CO)[C@@H](O)[C@H]2O)cc1-c1cc2ccccc2s1
emission maximum (in C1COCCO1): 435 nm
emission maximum (in CC#N): 443 nm
emission maximum (in CO): 446 nm
emission maximum (in O): 458 nm

SMILES: COc1cc2c3c4c(c5ccc(C(C)(C)C)cc5c5c(OC)cc(OC)c(c2c(OC)c1OC)c45)=[N+]1C3=Nc2c3c4cc(OC)c(OC)c(OC)c4c4c(OC)cc(OC)c5c6cc(C(C)(C)C)ccc6c(c3c54)n2[B-]1(F)F
emission maximum (in Cc1ccccc1): 907 nm

More lines, main results first:

emission maximum (in CC#N): 510 nm
SMILES: N#Cc1ccc(C=C2Oc3cccc(O)c3C2=O)cc1

emission maximum (in CN(C)C=O): 716 nm
SMILES: CCN(CC)c1ccc(/C=C2\CC/C(=C\c3ccc(N(c4ccccc4)c4ccccc4)cc3)C2=C(C#N)C#N)cc1

emission maximum (in ClCCl): 494 nm
SMILES: CCB1c2ccccc2Nc2ccccc21

emission maximum (in CC#N): 510 nm
emission maximum (in ClCCl): 477 nm
SMILES: Cc1cc(O)c(C(=O)/C=C/c2ccccc2O)c(=O)o1

emission maximum (in CS(C)=O): 376 nm
SMILES: COC(=O)[C@@H]1C(=O)Oc2ccccc2[C@H]1c1c[nH]c2ccccc12

emission maximum (in CS(C)=O): 491 nm
SMILES: Cc1ccc(N/C=C/C=[NH+]c2ccc(C)cc2)cc1

emission maximum (in CC#N): 424 nm
emission maximum (in ClCCl): 426 nm
SMILES: COc1ccc(-c2cc3c(ccc(=O)n3C)s2)cc1

emission maximum (in ClC(Cl)Cl): 444 nm
SMILES: CC(C)(C)c1ccc2oc3nc4oc5ccc(-n6c7ccc(C(C)(C)C)cc7c7cc(C(C)(C)C)ccc76)cc5c4cc3c2c1

emission maximum (in ClCCl): 639 nm
SMILES: CCN1c2ccc(C3=CC(c4ccccc4)=[O+][B-](F)(F)O3)cc2Sc2cc(C3=CC(c4ccccc4)=[O+][B-](F)(F)O3)ccc21

emission maximum (in CS(C)=O): 497 nm
SMILES: Brc1ccc(N/C=C/C=[NH+]c2ccc(Br)cc2)cc1

emission maximum (in ClC(Cl)Cl): 426 nm
SMILES: COc1ccc2cc(-c3cccc(-c4cc5ccc(OC)cc5oc4=O)c3)c(=O)oc2c1

emission maximum (in CC#N): 481 nm
emission maximum (in ClCCl): 469 nm
SMILES: Cc1cc(O)c(C(=O)/C=C/c2ccccc2Cl)c(=O)o1

emission maximum (in ClCCl): 430 nm
SMILES: CCOC(=O)c1ccc(C2CC(c3cccc4ccccc34)=NN2c2ccc(C#N)cc2)cc1 (configuration not stated)

emission maximum (in ClCCl): 367 nm
SMILES: COc1ccc(-c2cc(-c3ccc(C(F)(F)F)cc3)nn2C)cc1

emission maximum (in CC#N): 435 nm
emission maximum (in ClCCl): 417 nm
SMILES: Cc1ccc(-c2cc(C)[o+]c(C)c2)cc1

emission maximum (in ClC(Cl)Cl): 571 nm
SMILES: C[Si](C)(C)C#Cc1c2c(=O)c3ccccc3c2c(C#C[Si](C)(C)C)c2c(=O)c3ccccc3c12

emission maximum (in C1CCCCC1): 373 nm
SMILES: CB1C=Cc2ccc3ccccc3c2N1

emission maximum (in CO): 816 nm
SMILES: CC1(C)C(/C=C/C2=C(c3ccc(C(=O)O)cc3)C(=C/C=C3/N(CCCCS(=O)(=O)[O-])c4ccccc4C3(C)C)/CC2)=[N+](CCCCS(=O)(=O)[O-])c2ccccc21

emission maximum (in ClCCl): 662 nm
SMILES: COC(=O)/C=C/C=C/C1=CC2=C(c3c(C)cc(C)cc3C)c3cc(/C=C/C=C/C(=O)OC)cn3[B-](F)(F)[N+]2=C1

emission maximum (in ClCCl): 757 nm
SMILES: CCN(CC)c1ccc2c(-c3ccccc3C(=O)O)c3c([o+]c2c1)/C(=C/c1ccc(N(C)C)cc1)CCC3

emission maximum (in CCO): 460 nm
SMILES: Cc1ccc(C(=O)OCc2c(C)c(=O)n3c(=O)c(C)c(C)n23)cc1

emission maximum (in ClC(Cl)Cl): 388 nm
SMILES: COc1ccc(-c2ccc(-c3c4c(nc5ccccc35)-c3cc5c(cc3CC4)-c3nc4ccccc4c(-c4ccc(-c6ccc(OC)cc6)cc4)c3CC5)cc2)cc1

emission maximum (in ClCCl): 413 nm
SMILES: CC(C)(C)NC(=O)c1ccc(-c2ccccc2)c2ccc3c4ccccc4c4ccccc4c3c12

emission maximum (in ClCCl): 495 nm
SMILES: COC(=O)C1=C(C(=O)OC)[Se](=O)[C@]23C1=C[C@H](c1ccccc12)c1ccccc13 (some centres not stated)

emission maximum (in C1CCOC1): 594 nm
SMILES: O=C(c1ccc(N2c3ccccc3Oc3ccccc32)cc1)c1ccc2sc3ccccc3c2c1
emission maximum (in c1ccc2c(c1)c1ccccc1n2-c1ccc(-c2ccc(-n3c4ccccc4c4ccccc43)cc2)cc1): 524 nm

emission maximum (in CCO): 422 nm
SMILES: CCOC(=O)c1cc(C(=O)OCC)c2ccc(C)cc2n1

emission maximum (in ClCCl): 432 nm
SMILES: CC(C)(C)C1CCC(=CS/C=C/c2ccc(-c3ccc(/C=C/SC=C4CCC(C(C)(C)C)CC4)cc3)cc2)CC1 (configuration not stated)
